Laboratory results taken from patent US20060040870A1, “Enhancement of apoptosis by caspase-9 inhibitors” (priority 2004, published 2006).
The star is where a group is joined. Cbz = O=C(OCc1ccccc1)*; CH2F = FC*

How the values were obtained:
BLIN-3 cells = assay: Apoptosis by Annexin V staining and flow cytometry, BLIN-3; format: cell-based, human
Description: (§1) Flow cytometry. Quantitation of apoptotic events was conducted using a FACS Calibur (BD Immunocytometry Systems). All analyses were conducted on cells with lymphoid light scatter characteristics (i.e., low to medium forward scatter and low 90° side scatter).
(§2) iii. Annexin V. FITC-labeled Annexin V (BD Pharmingen, San Diego, Calif.) was used to detect external phosphatidylserine residues appearing on the external surface of early apoptotic cells (Koopman Blood. 1994;84:1415-1420). Cells were stained according to the manufacturers recommendations.
(§3) General experimental strategy. BLIN cell lines were removed from fibroblast monolayers, washed once and resuspended to 7.5×10^5/ml in X-VIVO 10. Two hundred μL of resuspended cells were added to 96-well flat-bottom microtiter plates (ISC Bioexpress, Kaysville, Vt.), followed by 0.5-1.0 μL of caspase inhibitors in DMSO. An identical volume of DMSO alone was added to separate wells as a vehicle control. This final DMSO concentration of 0.25-0.5% vol/vol had no adverse affect on any of the BLIN cell lines. At the indicated times the entire content of individual wells was harvested and stained in the fluorescent protocols described above.
The inventors carried out experiments to test the influence of specific amino acid substitutions on the proapoptotic activity Z-LEHD-fmk. Cells were cultured for 24 hours with various μM concentrations of Z-LEDH-fmk or single amino acid substitution of the parent peptide. All values in the following Table 3 represent the percentage of total Annexin V+ cells (PI+ and PI−) minus the percentage present in culture with DMSO alone (BLIN-2=3%; BLIN-3+7%; BLIN4L=5%).

BLIN cell lines = assay: Enhancement of apoptosis in BLIN cell lines (flow cytometry); format: cell-based, human
Description: as §1
i. Mitochondrial transmembrane potential (Δψm). The cationic lipophilic fluorescent dye tetramethylrhodamine, ethyl ester, perchlorate (TMRE) was purchased from Molecular Probes, Inc. (Eugene, Oreg.). TMRE has a high degree of membrane permeability and accumulates into mitochondria in accord with the Nernstian equation (Farkas Biophys J. 1989;56:1053-1069). Cells were washed once and re-suspended to 0.5-1.0×10^6/ml in X-VIVO 10. TMRE was added to a final concentration of 50 nM and the cells were incubated in the dark at 37° C. for 15 minutes. Cells were then washed 2× in PBS, resuspended in PBS containing 2 μg/ml of propidium iodide (PI), and immediately analyzed. The protonophore […] (50 μM, CCCP, Sigma) was used as a positive control to effect loss of Δψm in 100% of cells.
ii. YO-PRO-1. The green fluorescent DNA intercalant dye YO-PRO-1 (Idziorek J Immunol Methods. 1995;185:249-258) was purchased from Molecular Probes as the Vybrant Apoptosis Assay Kit #4. Dual staining with YO-PRO and PI allows for the detection of early apoptotic cells (YO-PRO+/PI−) that have undergone initial changes in permeability to small molecules. Cells were stained according to the manufacturers recommendations.
as §2, §3

[1] = system: DAUDI Burkitt lymphoma cell line; assay: Apoptosis by Annexin V staining and flow cytometry, DAUDI; format: cell-based; conditions: 50 μM, 18 hours
Description: (§4) FIG. 4 is a pair of graphs showing the effect of […] on various cell lines, as determined by Annexin V staining and flow cytometry. The cells included the B-cell precursor ALL cell lines […], and NALM-6, the RAMOS, RAJI, and DAUDI Burkitt lymphoma cell lines, the CCRF-CEM, JURKAT, and H9 T lymphoma cell lines, the K-562 erythroleukemia cell line, and resting or activated (i.e., CD3/CD28 cross-linked) normal human T cells. […] Flow cytometry. Quantitation of apoptotic events was conducted using a FACS Calibur (BD Immunocytometry Systems). All analyses were conducted on cells with lymphoid light scatter characteristics (i.e., low to medium forward scatter and low 90° side scatter). iii. Annexin V. […] Cells were stained according to the manufacturers recommendations.

[2] = system: PARP (caspase-3/caspase-7 substrate); assay: Western blotting of PARP cleavage in BLIN-3 and BLIN-4L; format: cell-based, human; conditions: overnight incubation of BLIN-3 and BLIN-4L cells, 50 μM
Description: Western blotting. This method was conducted essentially as previously described.^20 The antibodies used were: rabbit anti-caspase-2 (catalog # sc-625, Santa Cruz Biotechnology Inc., Santa Cruz, Calif.), rabbit anti-caspase-3 (catalog # 9661, Upstate Cell Signaling Solutions, Waltham, Mass.), rabbit anti-caspase-6 (catalog # 9761, Upstate), rabbit anti-caspase-9 (catalog # 9502, Upstate), mouse anti-PARP (catalog # 556494, Pharmingen), and rabbit anti-Bid (catalog # AF846, R&D Systems). The antibodies to caspase-2 and caspase-9 were generated to the procaspase isoforms, whereas the antibodies to caspase-3 and caspase-6 were generated to cleavage products.
As expected, inclusion of 50 μM PCi had no effect. The degree of PARP cleavage in the presence of C9i (greater in BLIN-3 than BLIN-4L) correlated with the percentage of Annexin V+ cells (FIG. 3).

BLIN-1 cells = assay: Apoptosis by Annexin V staining and flow cytometry, BLIN-1; format: cell-based, human; conditions: BLIN-1, 50 μM, 18 hours
Description: as §1, §2, §3
(§5) The inventors carried out experiments to test the influence of specific amino acid substitutions on the proapoptotic activity Z-LEHD-fmk. […]

CD33+ myeloid cells = assay: Annexin V staining of sorted cord blood-derived CD33+ myeloid cells removed from MS-5 stroma; format: cell-based, human; conditions: cultured 18 hours, DMSO control 27.9 ± 3.9, Time 0 <10
[3] = system: activated (CD3/CD28 cross-linked) normal human T cells; assay: Apoptosis by Annexin V staining and flow cytometry, activated normal T cells; format: cell-based; conditions: 50 μM, 18 hours
Description: as §4

[4] = system: RAJI Burkitt lymphoma cell line; assay: Apoptosis by Annexin V staining and flow cytometry, RAJI; format: cell-based; conditions: 50 μM, 18 hours
Description: as §4

NALM-6 cells = assay: Apoptosis by Annexin V staining and flow cytometry, NALM-6; format: cell-based; conditions: NALM-6, 50 μM, 18 hours
Description: as §4

JURKAT T lymphoma cells = assay: Fas response of JURKAT T lymphoma cells; format: cell-based; conditions: 50 μM
BLIN-2 cells = assay: Apoptosis by Annexin V staining and flow cytometry, BLIN-2; format: cell-based, human; conditions: BLIN-2, 50 μM, 18 hours
Description: as §1, §2, §3, §5

H9 T lymphoma cell line = assay: Apoptosis by Annexin V staining and flow cytometry, H9; format: cell-based; conditions: H9, 50 μM, 18 hours
Description: as §4

[5] = system: CCRF-CEM T lymphoma cell line; assay: Apoptosis by Annexin V staining and flow cytometry, CCRF-CEM; format: cell-based; conditions: 50 μM, 18 hours
Description: as §4

Substance: Z-LEHD-fmk (Cbz-LEHD-CH2F; SMILES CC(C)C[C@H](NC(=O)OCc1ccccc1)C(=O)N[C@@H](CCC(=O)O)C(=O)N[C@@H](Cc1c[nH]cn1)C(=O)N[C@@H](CC(=O)O)C(=O)CF) [C9i]
- sensitivity (fold-increase in Annexin V+ cells vs DMSO) (BLIN-3 cells; BLIN-3, 50 μM, 18 hours): sensitive
- apoptosis (Annexin V and TMRE staining) versus DMSO vehicle (BLIN-3 cells; BLIN-3 removed from adherent fibroblasts, 50 μM, 2-hour time points up to 8 hours): pronounced enhancement of apoptosis
- lowest concentration at which enhancement of apoptosis occurred (BLIN cell lines): 6.25 µM
- promotion of apoptosis in healthy cells (BLIN cell lines; BLIN-3 and BLIN-4L maintained on adherent fibroblasts and/or IL-7, 8 hours): did not promote apoptosis
- promotion of apoptosis in healthy cells (BLIN cell lines; BLIN-3 and BLIN-4L maintained on adherent fibroblasts and/or IL-7, 18 hours): promoted apoptosis
- sensitivity (fold-increase in Annexin V+ cells vs DMSO) [1]: insensitive
- cleavage of the caspase-3/caspase-7 substrate PARP [2]: led to cleavage
- sensitivity (fold-increase in Annexin V+ cells vs DMSO) (BLIN-1 cells): sensitive
- percentage of total Annexin V+ cells (PI+ and PI−), mean ± SD (CD33+ myeloid cells): 22.3 ± 1.2%
- sensitivity (fold-increase in Annexin V+ cells vs DMSO) [3]: marginally sensitive
- sensitivity (fold-increase in Annexin V+ cells vs DMSO) [4]: insensitive
- sensitivity (fold-increase in Annexin V+ cells vs DMSO) (NALM-6 cells): sensitive
- Fas response of JURKAT T lymphoma cells (JURKAT T lymphoma cells): blocked the Fas response
- sensitivity (fold-increase in Annexin V+ cells vs DMSO) (BLIN-2 cells): less sensitive than the others
- sensitivity (fold-increase in Annexin V+ cells vs DMSO) (H9 T lymphoma cell line): insensitive
- sensitivity (fold-increase in Annexin V+ cells vs DMSO) [5]: extremely sensitive
